Holding throughout (format): functional
Experiment [1] deals with Aedes aegypti. The experiment is described as follows: Larvicidal activity against third larval stage of Aedes aegypti assessed as mortality at 50 mg/L after 24 hr.
Experiment [2] deals with Bemisia argentifolii. The experiment is described as follows: Insecticidal activity against adult Bemisia argentifolii reared on compound-treated melon leaves assessed as layed eggs at 1000 mg/L applied as spray after 72 hr.
For experiment [3], the system named is Bemisia argentifolii. The experiment is described as follows: Insecticidal activity against adult Bemisia argentifolii reared on compound-treated melon leaves assessed as mortality at 1000 mg/L applied as spray after 72 hr.
The subject of experiment [4] is Aedes aegypti. Put plainly: Larvicidal activity against third larval stage of Aedes aegypti assessed as mortality at 25 mg/L after 24 hr.
The subject of experiment [5] is Aedes aegypti. Put plainly: Larvicidal activity against third larval stage of Aedes aegypti assessed as mortality at 100 mg/L after 24 hr.
Experiment [6] concerns Aedes aegypti. Put plainly: Larvicidal activity against third larval stage of Aedes aegypti assessed as mortality at 500 mg/L after 24 hr.
The subject of experiment [7] is Aedes aegypti. The experiment is described as follows: Larvicidal activity against third larval stage of Aedes aegypti assessed as mortality at 250 mg/L after 24 hr.

In general, mortality refers to the share of the test organisms that died. `CC12CCC(CC1)C(C)(C)O2` [EUCALYPTOL]: in the experiment on Aedes aegypti [1], the mortality at 50 µg/mL was 53%. Moreover, in the experiment on Bemisia argentifolii [2], the Activity is 9.2%. Moreover, the mortality at 1000 µg/mL with Bemisia argentifolii [3] worked out at 91.2%. Further, in the experiment on Aedes aegypti [4], the mortality at 25 µg/mL came out at 10%. Further, the mortality at 100 µg/mL in the experiment on Aedes aegypti [5] came out at 100%. The mortality at 500 µg/mL in the experiment with Aedes aegypti [6] is 100%. For the same molecule, in the experiment with Aedes aegypti [7], the mortality at 250 µg/mL came out at 100%.
